Results on five molecules are retold here after ChEMBL document CHEMBL3046917, “Antimicrobial evaluation of 4-methylsulfanyl benzylidene/3-hydroxy benzylidene hydrazides and QSAR studies” (2012).

Common to all, as to type: functional
Experiment [1] concerns Aspergillus niger. As to the kind of experiment: Ratio of MFC to MIC for Aspergillus niger MTCC 8189.
Experiment [2] concerns Candida albicans. As to the kind of experiment: Ratio of MFC to MIC for Candida albicans MTCC 227.
For experiment [3], the system named is Escherichia coli. The experiment is described as follows: Ratio of MBC to MIC for Escherichia coli MTCC 1652.
For experiment [4], the system named is Bacillus subtilis. The experiment is described as follows: Ratio of MBC to MIC for Bacillus subtilis MTCC 2063.
Experiment [5] deals with Staphylococcus aureus. As to the kind of experiment: Ratio of MBC to MIC for Staphylococcus aureus MTCC 2901.
Experiment [6] relates to Aspergillus niger. The experiment is described as follows: Fungicidal activity against Aspergillus niger MTCC 8189.
Experiment [7] has as its system Candida albicans. The experiment is described as follows: Fungicidal activity against Candida albicans MTCC 227.
Experiment [8] concerns Escherichia coli. The experiment is described as follows: Bactericidal activity against Escherichia coli MTCC 1652.
Experiment [9] deals with Bacillus subtilis. The experiment is described as follows: Bactericidal activity against Bacillus subtilis MTCC 2063.
Experiment [10] deals with Staphylococcus aureus. The experiment is described as follows: Bactericidal activity against Staphylococcus aureus MTCC 2901.
Experiment [11] relates to Candida albicans. The experiment is described as follows: Fungistatic activity against Candida albicans MTCC 227 after 48 hr by tube dilution method.
The test system of experiment [12] is Aspergillus niger. As to the kind of experiment: Fungistatic activity against Aspergillus niger MTCC 8189 after 7 days by tube dilution method.
In experiment [13] the test system is Escherichia coli. As to the kind of experiment: Bacteriostatic activity against Escherichia coli MTCC 1652 after 24 hr by tube dilution method.
For experiment [14], the system named is Staphylococcus aureus. As to the kind of experiment: Bacteriostatic activity against Staphylococcus aureus MTCC 2901 after 24 hr by tube dilution method.
In experiment [15] the test system is Bacillus subtilis. The experiment is described as follows: Bacteriostatic activity against Bacillus subtilis MTCC 2063 after 24 hr by tube dilution method.

Converted amounts (≈) assume the structure as drawn.

`CCCCCCCCCCCCCCCCCC(=O)N/N=C/c1ccc(SC)cc1`: the Ratio in the experiment with Aspergillus niger [1], with Candida albicans [2], with Escherichia coli [3], in the experiment with Bacillus subtilis [4] and in the experiment on Staphylococcus aureus [5] was 3 throughout. For the same molecule, the MFC is 115 µM (≈ 49.8 µg/mL) against Aspergillus niger [6] and over 115 µM against Candida albicans [7]. Moreover, the MBC is 28 µM (≈ 12.1 µg/mL) against Escherichia coli [8], over 115 µM in the experiment on Bacillus subtilis [9] and over 115 µM against Staphylococcus aureus [10]. For the same molecule, the “-logMIC” value with Candida albicans [11] amounted to 0.7; with Aspergillus niger [12], 0.7; in the experiment with Escherichia coli [13] it was 1.65; with Staphylococcus aureus [14], 0.94; with Bacillus subtilis [15], 0.64.
Turning to `C/C=C/C=C/C(=O)N/N=C/c1ccc(SC)cc1`, the Ratio in the experiment with Aspergillus niger [1], in the experiment with Candida albicans [2], in the experiment with Escherichia coli [3], with Bacillus subtilis [4] and with Staphylococcus aureus [5] was 3 in each case. Moreover, the figures for the MFC against Aspergillus niger [6] and in the experiment with Candida albicans [7] were 96 µM (≈ 25 µg/mL) and over 192 µM, respectively. Moreover, the values for the minimum bactericidal concentration (MBC) in the experiment on Escherichia coli [8], against Bacillus subtilis [9] and against Staphylococcus aureus [10] were over 192 µM, over 192 µM and 192 µM (≈ 50 µg/mL), respectively. Moreover, the “-logMIC” value in the experiment on Candida albicans [11] was 1.32; with Aspergillus niger [12], 1.32; in the experiment on Escherichia coli [13] it was 1.32; with Staphylococcus aureus [14], 1.02; in the experiment on Bacillus subtilis [15], 0.72.
Take `CSc1ccc(/C=N/NC(=O)/C=C/c2ccccc2)cc1`: the Ratio with Aspergillus niger [1], in the experiment on Candida albicans [2], in the experiment on Escherichia coli [3], in the experiment on Bacillus subtilis [4] and in the experiment on Staphylococcus aureus [5] was 3 each time. Besides, the minimum fungicidal concentration (MFC) is over 168 µM in the experiment with Aspergillus niger [6] and 84 µM (≈ 24.9 µg/mL) in the experiment with Candida albicans [7]. The minimal bactericidal concentration (MBC) was 168 µM (≈ 49.8 µg/mL) with Escherichia coli [8], over 168 µM against Bacillus subtilis [9] and over 168 µM with Staphylococcus aureus [10]. Further, the “-logMIC” value in the experiment with Candida albicans [11] amounted to 1.37; in the experiment with Aspergillus niger [12], 1.37; in the experiment on Escherichia coli [13], 1.68; in the experiment on Staphylococcus aureus [14] it was 1.68; in the experiment with Bacillus subtilis [15], 1.68.
Turning to `CSc1ccc(/C=N/NC(=O)c2cccc(C)c2)cc1`, the Ratio in the experiment with Aspergillus niger [1], with Candida albicans [2], with Escherichia coli [3], with Bacillus subtilis [4] and in the experiment with Staphylococcus aureus [5] was 3 in each case. Besides, the results for the MFC with Aspergillus niger [6] and with Candida albicans [7] were 88 µM (≈ 25 µg/mL) and 176 µM (≈ 50.1 µg/mL), respectively. The figures for the minimal bactericidal concentration (MBC) in the experiment on Escherichia coli [8], against Bacillus subtilis [9] and against Staphylococcus aureus [10] were 176 µM (≈ 50.1 µg/mL), over 176 µM and over 176 µM, respectively. In addition, the “-logMIC” value with Candida albicans [11] was determined as 1.67; in the experiment with Aspergillus niger [12], 1.7; with Escherichia coli [13], 1.66; in the experiment on Staphylococcus aureus [14], 1.55; in the experiment on Bacillus subtilis [15] it was 1.06.
Turning to `CSc1ccc(/C=N/NC(=O)c2ccc(C)cc2)cc1`, the Ratio in the experiment with Aspergillus niger [1], in the experiment on Candida albicans [2], with Escherichia coli [3], in the experiment on Bacillus subtilis [4] and with Staphylococcus aureus [5] was 3 each time. In addition, the MFC in the experiment with Aspergillus niger [6] and against Candida albicans [7] was 88 µM (≈ 25 µg/mL) in each case. The minimum bactericidal concentration (MBC) against Escherichia coli [8] was 88 µM (≈ 25 µg/mL); against Bacillus subtilis [9], 44 µM (≈ 12.5 µg/mL); in the experiment on Staphylococcus aureus [10], over 176 µM. In addition, the “-logMIC” value in the experiment on Candida albicans [11] is listed as 1.96; in the experiment on Aspergillus niger [12], 1.66; in the experiment with Escherichia coli [13], 1.96; with Staphylococcus aureus [14], 1.66; in the experiment with Bacillus subtilis [15], 1.96.

Broadly, the MFC is the smallest concentration meeting the test's criterion for killing the fungus. A word on the MBC: it is the lowest tested concentration that kills the bacteria rather than only halting them. A higher MBC goes with weaker bactericidal potency.
